Experimental data from a melting point compilation (Tetko et al.; mined from patent text by program, amines drawn as free bases though some values may be those of a salt).

SMILES	melting point
CSc1sc(C(N)=O)c2c1-c1[nH]ncc1CC2	210 to 211 °C
CCOC(=O)C1CCN(C(=O)OCC)c2ccccc2C1O (stereo unspecified)	93 °C
NC(=NC(=O)c1nc(Cl)c(N)nc1N)NCCCCc1ccc(OCC(=O)N(CCO)CCO)cc1	114 to 116 °C
CCCCOC1=C(c2ccccc2)C(CCC(=O)O)OC1=O (stereo unspecified)	94 to 96 °C
O=C(Nc1cccc(Cl)c1)C1C(=O)Sc2ccc(Cl)cc21 (stereo unspecified)	160 to 163 °C
CC1(O)CCC2(C)C(CCC3C2CCC2(C)C(c4cn5ccccc5n4)CCC32)C1 (stereo unspecified)	225 to 226 °C
Cc1ccccc1SN(C)C(=O)Oc1cccc2c1OC(C)(C)C2	78 °C
CCOC(=O)C1=C(COCCOc2ncccn2)NC(C)=C(C(=O)OC)C1c1ccccc1Cl (stereo unspecified)	101 °C
CC(C)(C)c1ccc(-c2snnc2S)cc1	> 150 °C
CCCCC[C@H](O)/C=C/[C@@H]1[C@H]2Cc3cccc(OC(C)=O)c3C[C@H]2C[C@H]1O	54 to 65 °C
CSc1c[nH]c2ncnc(Cl)c12	166 to 167 °C
Cc1c(N)cccc1C1=NC(C)(C)CO1	45 °C
N#CC(=NOS(=O)(=O)c1ccc(C(=O)Cl)cc1)c1ccccc1	193 to 195 °C
Cc1cc2c(c(C)c1S(=O)(=O)C[N+](=O)[O-])CCC(C)(C)O2	110 to 111 °C
CC(C)(C)OC(=O)NCc1cc([N+](=O)[O-])ccc1Cl	77 °C
NC(=O)c1nsc(N)c1C(N)=O	205 °C
COC(=O)C(C)C1CCC2C3CC=C4CC(OC(C)=O)CCC4(C)C3CCC12C (stereo unspecified)	140 to 142 °C
CCSC=C1SC(=O)N(CCCCSc2cccc3nccn23)C1=O	159 to 160 °C
O=CCCCCC(=O)Nc1ccc(C(F)(F)F)cc1	130 to 131 °C

SMILES	melting point
N#CC(=C(O)C1CCN(Cc2ccccc2)CC1)c1ccccc1	192 °C
CCCC(=O)c1ccc(OCCC(=O)O)c(Cl)c1Cl	138 to 139 °C
Cc1cc(OC(F)F)ccc1C(=O)O	117 to 119 °C
COC(=O)CCCNC(=O)C(CSC(C)=O)Cc1ccccc1 (stereo unspecified)	81 to 82 °C
CCOC(=O)c1nc(-c2cccc([N+](=O)[O-])c2)cs1	149 to 150 °C
CN(CC(F)(F)F)C(=O)COc1nnc(-c2ccccc2)s1	123 °C
N#Cc1ccccc1Sc1ccc([N+](=O)[O-])cc1	151 to 153 °C
C/C(=C\C(C)O)c1ccc(-c2ccccc2)c(Cl)c1 (stereo unspecified)	86 °C
O=c1[nH]c2cc([N+](=O)[O-])ccc2c(=O)n1CCCN1CC=C(c2ccc(Cl)cc2)CC1	210 to 212 °C
O=C(O)c1cn(C2COC2)c2c(F)c(F)c(F)cc2c1=O	203 to 206 °C
CN1C(=O)CN=C(c2ccccc2F)c2cc(NC(=O)N3CCCC3)ccc21	159 to 160 °C
Cc1nc(Sc2cc(C(=O)O)c3ccccc3n2)sc1CC(=O)O	206 to 208 °C
Cc1csc(=S)n1-c1ccc(F)cc1N	138 °C
C=CC1OC(=O)N2c3ccc(O)cc3CCC12 (stereo unspecified)	250 °C
COc1ccc(-c2nc(S(=O)(=O)C(F)(F)C(F)F)[nH]c2-c2cccs2)cc1	163 to 164 °C
Brc1cccc2c1Sc1c(Br)cccc1S2	176 to 178 °C
Cc1c(NC(=O)CC(C)(C)C)cc2c(c1C)OC(C)(C)C2(O)c1cccc(C(C)O)c1 (stereo unspecified)	206 to 207 °C
CC(=O)SCSc1cn(C(c2ccccc2)(c2ccccc2)c2ccccc2)nn1	115 to 116 °C

Second part, the molecule after the results:

melting point	SMILES
277 to 279 °C	CC(=O)Nc1ccc2c3c1c(=O)c(C(=O)O)cn3C(C)CC2 (stereo unspecified)
217 to 219 °C	COc1cc2c(cc1C(F)(F)F)N(C(=O)Nc1cncc(-c3c(F)cccc3F)c1)CC2
242 to 244 °C	Cc1nc(-c2ccc3cnc(Nc4ccc(N5CCN(C)CC5)cc4)nn23)cn1C
188 to 190 °C	CN(C(=O)c1cnc2c(C(F)(F)F)cccc2c1-c1ccccc1)c1ccccc1
233 to 234 °C	CCc1cccc(CC)c1NC(=O)Nc1oc2ccc(Cl)cc2c1-c1ccccc1C
267 to 271 °C	Cc1[nH]c(C(=O)N2CCC(C(=O)O)CC2)c(C)c1-c1nc2ccc(C(=O)c3ccccc3)cc2[nH]1
146 to 149 °C	CC(C)CCc1nc2ccccn2c(=O)c1-c1ccc(Cl)cc1
159 to 161 °C	Nc1nc2ccccc2c2c1ncn2CCCCNC(=O)c1ccc(C(=O)c2ccccc2)cc1
124 to 129 °C	C[C@@H](n1cnc2cc(Cl)ccc2c1=O)[C@](O)(Cn1cncn1)c1ccccc1F
236 to 238 °C	O=C(Cc1ccccc1)NCc1cccc2c1CN(C1CCC(=O)NC1=O)C2=O (stereo unspecified)
216 to 219 °C	NC(Cc1ccccc1)C(=O)NC1CCN(c2nc3c(cc2F)c(=O)c(C(=O)O)cn3C2CC2)C1 (stereo unspecified)
81 to 84 °C	COc1ccc(OC)c(Cc2cccc(N)c2)c1
217 °C	CN1C(=O)CNN(c2cc(Cl)c(Oc3ccc(S(C)(=O)=O)cc3)c(Cl)c2)C1=O
205 °C	COc1ccc(-c2cc(-c3cccc(Br)n3)nc(-c3cccc(Br)n3)c2)cc1
115 to 118 °C	CCOC(=O)n1c2ccccc2c(=O)n1C(c1ccccc1)c1ccccc1
184 to 185 °C	CC(C)(C)c1cc(CCc2ccccc2NC(=O)NC2CCN(Cc3ccc(Cl)cc3)CC2)cc(C(C)(C)C)c1O
274 to 275 °C	CC(C)(C)c1ccc(C(=O)Nc2cn3nc(NC4CC4)ccc3n2)cc1

melting point	SMILES
100 to 101 °C	CN1CCN(C(=O)c2ccc([N+](=O)[O-])cc2)CC1
269 to 273 °C	O=C(O)c1cn(-c2cnsn2)c2nc(N3CCCC3)c(F)cc2c1=O
178 to 181 °C	CN(C)c1ccc(-c2cc3ccccc3o2)cc1
58 to 60 °C	CC(C)(C(=O)Nc1cccc(C(F)(F)F)c1)N1COC(C(F)F)=C(c2ccccc2)C1=O
195 °C	COc1ccc(-c2nn(C)c(=O)c3ccccc23)cc1Cl
179 to 180 °C	COc1ccnc(CCc2nc3cc(-c4ccc(S(=O)(=O)N(C)C)cc4C)cnc3[nH]2)c1
151 to 152 °C	CC(CN1CCn2c(c(-c3ccccc3)c3cc(Cl)ccc32)C1=O)N(C)C (stereo unspecified)
108 to 110 °C	C#CC[C@@H](NC(=O)OC(C)(C)C)c1nc2cccnc2c(=O)n1Nc1ccccc1
186 to 187 °C	CCOCc1nc2c(N)nc3cc(OCc4ccccc4)ccc3c2n1CC1COC(C)(C)O1 (stereo unspecified)
60 to 63 °C	Cc1cn(CCC(=O)N(C)C)nc1-c1ccccc1
158 to 160 °C	CN1C=C(C(=O)O)C(C(=N)O)=NC1N1CCN(Cc2ccccc2)CC1 (stereo unspecified)
189 to 191 °C	CCCc1cc(O)ccc1-c1noc2cc(O)ccc12
70 to 71 °C	COc1cnc2c(c1)c(CCNC(=O)c1ccco1)c1n2CCCO1
176 to 178 °C	COc1ccc(-c2nc(N3CCCC3)c3c(C)c(C#N)sc3n2)cc1
147 to 148 °C	Cc1c(OCc2ccccc2)ccc(-c2cc(O)c(SCCc3ccccc3)c(=O)o2)c1O
212 to 213 °C	Cc1cc(-c2nnc3c4ccccc4c(OCc4cnn(C)c4)nn23)no1
91 to 93 °C	COC(=O)C(C)c1ccc2cc(OCc3ccc4ccccc4n3)ccc2c1 (stereo unspecified)
